From article PMC6529438 (2019)

Experiments:
Test in all cases: graphene oxide FRET fluorescence recovery with DNase I amplification
Conditions in all cases: 5 mM Mg2+, 15 mM Na+, 20 mM Tris-HCl, 0.001% PEG 900, pH 8.0
[1] = test system: FAM-modified kanamycin aptamer (P2) (DNA, aptamer) TGGGGGTTGAGGCTAAGCCGA
[2] = test system: Cy5-modified ampicillin aptamer (P3) (DNA, aptamer) GCGGGCGGTTGTATAGCGG
[3] = test system: Cy3-modified sulfadimethoxine aptamer (P1) (DNA, aptamer) GAGGGCAACGAGTGTTTATAGA
[4] = 10-500 ng/mL, room temperature, then 37 °C with DNase I
[5] = 500 ng/mL, mixed aptamers, very weak signal change

Q: For CC1(C)S[C@@H]2[C@H](NC(=O)[C@H](N)c3ccccc3)C(=O)N2[C@H]1C(=O)O, which binding ([1]; 500 ng/mL, mixed aptamers, weak signal change only) is on record?
A: The binding was “weak”.

Q: What about the binding [2, 4] of the same compound?
A: Its binding is “yes”.

Q: And the binding ([3]; 500 ng/mL, with kanamycin none, alone weak signal change)?
A: The binding was “no”.

Q: COc1cc(NS(=O)(=O)c2ccc(N)cc2)nc(OC)n1 was tested. Which binding [1, 5] did it give?
A: The binding was “no”.

Q: What about the binding [2, 5] of the same compound?
A: The binding was “no”.

Q: What about the binding [3, 4] of the same compound?
A: Its binding is “yes”.

Q: How did the binding [1, 4] turn out when NC[C@H]1O[C@H](O[C@H]2[C@H](O)[C@@H](O[C@H]3O[C@H](CO)[C@@H](O)[C@H](N)[C@H]3O)[C@H](N)C[C@@H]2N)[C@H](O)[C@@H](O)[C@@H]1O was run?
A: Its binding is “yes”.

Q: What about the binding ([3]; 500 ng/mL kanamycin with 500 ng/mL ampicillin, mixed aptamers) of the same compound?
A: Its binding is “no”.
